Each structure is given as a SMILES string.

For data set [1], the system named is Hakai-MDCK xenograft tumours. The data set is described as follows: Tumour xenograft model (Hakai-MDCK cells in nude mice). In kind it is in vivo, athymic nu/nu mice. As for the experimental part: Xenografts experiments were performed in Experimental Surgery Unit—Technological Training Center from INIBIC in compliance with the European Community Law (86/609/EEC) and the Spanish law (R.D. 53/2013). The experiment was approved by the Ethics Committee for Animal Experimentation of Xerencia de Xestion Integrada da Coruna (XXIAC). Mice were in a 12/12 hours light/dark cycle with water and food available ad libitum. Six weeks old athymic nu/nu mice were randomly distributed in groups. One million of MDCK cells, resuspended in DMEM without serum and antibiotic, were subcutaneously inoculated in both flanks in two groups of 3 animals. The same number of Hakai-MDCK cells were injected in two groups of 4 animals. Twenty days after inoculation tumours in Hakai-MDCK were palpable. Then, half of the animals were treated with Hakin-1 (5 mg/kg) and the other half with the same concentration of DMSO every 3 days. Tumour outgrowth was monitored twice a week taking measurements of tumour length (L) and width (W) with an electronic calipter. Tumour volume was calculated as pLW2/6. Forty days after inoculation, animals were sacrificed. Tumours, lungs, kidneys and livers were collected and fixed in 4% PFA and embedded in paraffin blocks for histology and/or immunohistochemistry (IHC) analyses.
Tumours and tissues were deparaffinised, rehydrated and stained with haematoxylin and eosin (H&E) as previously described. Tumour sections (4 μm) were also deparaffinised and hydrated for immunohistochemistry. Antigen retrieval was carried by heating the samples (2100 Retriever; PickCell Laboratories) in citrate buffer (Dako REAL, Denmark) or in EDTA buffer. Then, endogenous peroxidase activity was blocked with peroxidase blocking (DakoCytomation, Denmark). Samples were blocked and permeabilized with 0.2% BSA and 0.1% Tx-100 for 1 hour and incubated with the indicated primary antibodies overnight at 4° C. in a wet chamber. Slides were incubated for 1 hour at room temperature with the secondary antibody and detection was carried our using DAB (DakoReal Envision kit) according to manufacturer instructions. Finally, nuclei were counterstained with Gill's Hematoxylin and mounted with DePeX. Pictures were taken with an Olympus microscope. Quantification of images was performed taken 5 photographs of each animal with Image J programme and the represented results are shown as mean±SEM. The number of mitosis was counted in sections stained with H&E. In this case, ten pictures of each tumour were taken with an Olympus BX50 microscope (objective 40×) and the number of mitosis was counted manually. Results are represented as mean±SEM and a representative photograph is shown for each condition. […]
Tissue sections from tumours were deparaffinised and rehydrated using standard protocols. The slides were rinsed twice with PBS and treated with citrate buffer buffer (Dako REAL, Denmark) in microwave at 350 W for 5 min. The tissue sections were then analysed with an in situ Cell Death Detection Kit, Fluorescein (Roche) following the manufacturer's instructions. Then, slides were incubated with Hoechst for 5 min in darkness. The reaction was visualized under an epifluorescence Olympus microscope using 20× objective. Five representative pictures of each section were taken. The percentage of positive cells was calculated and results are represented as mean±SEM.

Data set [2] deals with Hakai-transformed MDCK cells. The data set is described as follows: Phase-contrast cell phenotype, Hakai-MDCK. It counts as cell-based. How it is done:
MDCK, HEK293T, HepG2, MCF7 and ACHN cells were cultured in Dulbecco's Modified Eagles Medium (DMEM). MDCK stably expressing Hakai cells (Hakai-MDCK) were previously reported and were growth in DMEM with G418 (800 μg/ml). […] LoVo and PC-3 cells were cultured in F-12K Medium (Kaighn's Modification of Ham's F-12 Medium) and HT-29 cells in McCoy's 5a Medium Modified. 5637 cells were cultured in RPMI medium. All culture media were supplemented with 1% penicillin/streptomycin and 10% of heat-inactivated fetal bovine serum (FBS) at 37° C. in a humidified incubator with 5% CO2. Cells were monthly tested for mycoplasma contamination and used only for 1-3 months after defrosted. LoVo and HT29 cells were authenticated with the StemElite ID system (Promega). For phase-contrast images, culture cells were photographed with a Nikon Eclipse-TI microscope.

Setting [3] is: Hakai-MDCK xenograft tumours, 5 mg/kg every 3 days.
The mark [4] stands for this setting: Hakai-MDCK xenograft, 5 mg/kg every 3 days.

Turning to `O=C(O)c1ccc(-n2nnnc2SCC(=O)c2ccc([N+](=O)[O-])cc2)cc1` [Hakin-1, 4-(5-{[2-(4-nitrophenyl)-2-oxoethyl]thiol}-1H-tetrazol-1-yl)benzoic acid], the “micrometastasis detected in lung (quantitative PCR of HA-tagged Hakai DNA)” value in data set [1] (Hakai-MDCK xenograft mice, compared to DMSO treated mice) is reported as “significant reduction of micrometastasis”. In data set [1] (Hakai-MDCK xenograft tumours), the “Cortactin expression (immunohistochemistry)” value is on record as “recovered”. Moreover, in data set [1] (Hakai-MDCK xenograft tumours, in presence or absence of treatment), the “E-cadherin (immunohistochemistry)” value was “not detected”. In data set [1] (setting [3]), the “apoptosis (TUNEL assay)” value is on record as “no effect on apoptosis was detected”, the “mitotic-index (H&E)” value was “markedly reduce” and the “number of Ki67-positive cells (immunohistochemistry)” value is given as “markedly reduce”. The “number of blood vessels (CD31 angiogenic marker)” value in data set [1] (Hakai-MDCK xenograft tumours, vs non-treated tumours) is listed as “strong reduction on the number of blood vessels”. Also, the xenograft tumour growth result in data set [1] (Hakai-MDCK xenograft, nude mice, 5 mg/kg every 3 days, vs DMSO) is recorded as “potent effect on inhibiting xenograft tumour growth”. Moreover, in data set [1] (setting [4]), the “tumour-cell infiltration in blood vessels (H&E)” value is “no infiltration was detected”; the “xenograft tumour cell morphology (H&E)” value was “induction of tumour differentiation and an increase in cytoplasm size”. For the same compound, the “tissue damage (H&E, morphological structure)” value in data set [1] (lung and kidney tissues of treated nude mice, 5 mg/kg) was “no damage was observed”. Moreover, the “N-cadherin expression (immunohistochemistry)” value in data set [1] (tumour xenografts, compared to DMSO treated mice) was “strongly reduced”. For the same compound, the “mesenchymal phenotype (phase contrast)” value in data set [2] is given as “induction of an epithelial phenotype”.
